In patent US9155752B2, “Liver function-improving agent” (UENO FINE CHEMICALS INDUSTRY, LTD., priority 2012, dated 2015):

Assays:
Type in all cases: in vivo
[1] = tested on: C57BL/6 male mice fed high fat diet; experiment: Blood ketone bodies value after 8-week feeding (Test Example 1); design: key to Blood ketone bodies value, Significant difference: *: a significant difference was observed at 1% level of significance relative to group 3; conditions: for Blood ketone bodies value (Mean ± Standard error): 8 weeks
Source text: (§1) Eight-week-old C57BL/6 male mice (CLEA Japan, Inc.) were divided at random into groups (each group: four animals) and then used. As a normal diet, solid diet MF (lipid component 5.3%, manufactured by Oriental Yeast Co., Ltd.) was used. As a high-fat diet, solid diet High Fat Diet 32 (lipid component 32.0%, manufactured by CLEA Japan, Inc.) was used. As a sample water, 2.5% by weight of aqueous sucrose solution, 2.25% by weight of aqueous maltitol solution, and 4.5% by weight of aqueous maltitol solution obtained by respectively dissolving, as a test substance, sucrose (manufactured by Wako Pure Chemical Industries, Ltd.) and maltitol (Whole Crystalline Maltitol Ueno 60M, having maltitol purity of 90%, manufactured by Ueno Fine Chemicals Industry, Ltd.) in distilled water were used. Distilled water was used as a negative sample. The sample water was administered by making it available ad libitum and the amount of sample water intake was recorded. The dose of sucrose per day calculated from the concentration of the sample water and the water intake was 3 g per 1 kg of body weight. The dose of maltitol per day calculated in the same manner as above was 2.7 g per 1 kg of body weight in mice receiving 2.25% aqueous maltitol solution, and 4.5 g per 1 kg of body weight in mice receiving 4.5% aqueous maltitol solution. The diet and the sample water (test substance aqueous solution or distilled water) listed in Table 1 were administered to mice in each group, and the animals were fed for 8 weeks. After 8-week test feeding, pentobarbital of 0.5 mg/10 g of body weight was intraperitoneally administered to mice, and blood was collected from the tail vein under deep anesthesia. Further, by using Precision Xceed β-Ketone Measuring Electrode (manufactured by Abbott Japan Co., Ltd.), ketone bodies value in blood, which is an indicator of fat burning in the liver, was measured. A significant difference test by the t-test method was performed on blood AST values, blood ALT values, and blood ketone bodies values were evaluated by performing significant difference tests on these values via t-test.

[2] = tested on: C57BL/6 male mice fed high fat diet; experiment: Blood AST value and blood ALT value after 8-week feeding (Test Example 1); design: key to Blood ALT value, Significant difference: *: a significant difference was observed at 1% level of significance relative to group 3
Source text: as §1, with “anesthesia. With respect to the serum from the collected blood sample of mice, blood AST” for “anesthesia. Further, by using Precision Xceed β-Ketone Measuring Electrode (manufactured by Abbott Japan Co., Ltd.), ketone bodies”, “value and blood ALT value” for “value in blood,”, “which are each” for “which is”, “of liver function were measured using a Transaminase C-II Test Wako Kit (Wako Pure Chemical Industries, Ltd.).” for “of fat burning in the liver, was measured.”

[3] = tested on: C57BL/6 male mice fed high fat diet; experiment: Fat vacuoles in hepatocytes, HE-stained liver tissue (Test Example 2); conditions: for Fat vacuole area, Significant difference: 1% level; for Fat vacuole area (Mean ± Standard error): 8 weeks
Method: The following test was carried out in the same manner as in Test Example 1 for (1) test animal, (2) diet, and (3) preparation of sample. The diet and the sample water (test substance aqueous solution or distilled water) listed in Table 1 were administered to mice in each group and the animals were fed for 8 weeks. After 8-week test feeding, pentobarbital of 100 mg/kg of body weight was intraperitoneally administered to mice, and the mice were euthanized, and then liver was excised. The liver tissue excised from mice was stained with hematoxylin-eosin (HE) and a specimen observation under a microscope was carried out. Moreover, the results of microscopic observation were analyzed by the following method and a significant difference was evaluated by the t-test. […] This photographing was performed for four mice per group to obtain 16 microscopic images in total per group. At first, stained parts such as cytoplasm and nucleus in hepatocytes were selected by the image analysis. Then fat vacuole parts were selected by color inversion and the number of pixels for the selected fat vacuole parts was considered as a fat vacuole area. In the analysis, Dynamic Cell Count software accompanying fluorescence microscope BZ-9000 was used.

[4] = Group 4: high fat diet + 2.25% aqueous maltitol solution
[5] = Group 5: high fat diet + 4.5% aqueous maltitol solution
[6] = Group 4: high fat diet + 2.25% aqueous maltitol solution ad libitum, 8 weeks (2.7 g/kg/day)
[7] = Group 5: high fat diet + 4.5% aqueous maltitol solution ad libitum, 8 weeks (4.5 g/kg/day)
[8] = Group 3: high fat diet + 2.5% aqueous sucrose solution
[9] = Group 3: high fat diet + 2.5% aqueous sucrose solution ad libitum, 8 weeks (3 g/kg/day)

OC[C@@H](O)[C@@H](O[C@H]1O[C@H](CO)[C@@H](O)[C@H](O)[C@H]1O)[C@H](O)[C@@H](O)CO [maltitol]
Blood ketone bodies value, change in words ([1]; Group 4 (2.25% aqueous maltitol solution) in comparison with group 3 (sucrose)): significant improvement effect | Blood ketone bodies value, Significant difference ([1]; Group 4 (2.25% aqueous maltitol solution) relative to group 3 (sucrose), t-test): * | Blood ketone bodies value (Mean ± Standard error) [1, 4]: 0.20 ± 0.04 mmol/L | Blood ketone bodies value, change in words ([1]; Group 5 (4.5% aqueous maltitol solution) relative to group 3 (sucrose)): increased | Blood ketone bodies value (Mean ± Standard error) [1, 5]: 0.18 ± 0.05 mmol/L | Blood AST value, change in words ([2]; Group 4 (2.25% aqueous maltitol solution) relative to group 3 (sucrose)): tendency to be decreased | Blood ALT value (Mean ± Standard error) [2, 6]: 41 ± 14 IU/L | Blood AST value (Mean ± Standard error) [2, 6]: 205 ± 77 IU/L | Blood ALT value, change in words ([2]; Group 5 (4.5% aqueous maltitol solution) compared to group 3 (sucrose)): significantly decreasing the blood ALT value | Blood AST value, change in words ([2]; Group 5 (4.5% aqueous maltitol solution) compared with group 1 (normal diet + distilled water)): decreased to a level equivalent to that in group 1 | Blood ALT value, Significant difference ([2]; Group 5 (4.5% aqueous maltitol solution) relative to group 3 (sucrose), t-test): * | Blood ALT value (Mean ± Standard error) [2, 7]: 11 ± 1 IU/L | Blood AST value (Mean ± Standard error) [2, 7]: 54 ± 3 IU/L | Fat vacuole area, Significant difference ([3]; Group 4 (2.25% maltitol solution) relative to group 2 (high fat diet + distilled water)): significantly smaller and Yes | Fat vacuoles in microscopic observation [3, 4]: few fat vacuoles were observed | Fat vacuole area (Mean ± Standard error) [3, 4]: 256145 ± 29037 pixel | Fat vacuole area, Significant difference ([3]; Group 5 (4.5% maltitol solution) relative to group 2 (high fat diet + distilled water)): significantly smaller and Yes | Fat vacuoles in microscopic observation [3, 5]: few fat vacuoles were observed | Fat vacuole area (Mean ± Standard error) [3, 5]: 264982 ± 16387 pixel

OC[C@H]1O[C@@](CO)(O[C@H]2O[C@H](CO)[C@@H](O)[C@H](O)[C@H]2O)[C@@H](O)[C@@H]1O [sucrose, reference compound]
Blood ketone bodies value (Mean ± Standard error) [1, 8]: 0.08 ± 0.03 mmol/L | Blood ALT value (Mean ± Standard error) [2, 9]: 50 ± 12 IU/L | Blood AST value (Mean ± Standard error) [2, 9]: 244 ± 107 IU/L | Fat vacuole area, Significant difference ([3]; Group 3 (2.5% sucrose solution) relative to group 2 (high fat diet + distilled water)): No | Fat vacuoles in microscopic observation [3, 8]: reduction of the fat vacuoles is limited | Fat vacuole area (Mean ± Standard error) [3, 8]: 306930 ± 28549 pixel
